Measurements reported in patent US20160316790A1, “BETA-HINOKITIOL DERIVATIVES AND APPLICATIONS THEREOF IN PREPARATION OF ANIMAL ANTIBACTERIAL AGENTS AND ANTIBACTERIAL GROWTH PROMOTERS USED IN FEED” (GUANGZHOU INSIGHTER BIOTECHNOLOGY CO., LTD., priority 2013, published 2016).
Converted amounts (≈) assume the structure as drawn. “And” between values parts separate entries of the source, which are not always exact repeats. Equal entries are not always repeated. Where two headings read alike, the source gives them in different places.

Legend:
[1] = test system: clostridium perfringens; assay: microbe, parasite or virus in culture; format: cell-based
[2] = test system: escherichia coli; assay: Minimum inhibitory concentration in vitro, doubling dilutions; format: cell-based
[3] = Application effect test of β-hinokitiol derivatives in broiler feeds; format: in vivo, fast-grown type yellow feather broilers; details: 14 days; for Average daily weight gain / Average weight gain / Total consumption / feed conversion efficiency: broilers
Description: 598 fast-grown type yellow feather broilers (female) aged 30-days were divided into five groups according to table 5. […] During the test, the broilers ate food and drank water freely. The test lasted for 14 days. […] [table]

[4] = test system: staphylococcus aureus; assay: Minimum inhibitory concentration in vitro, doubling dilutions; format: cell-based
[5] = test system: vibrio; assay: as above; format: cell-based
[6] = test system: haemophilus parasuis; assay: as above; format: cell-based; details: Glaesserella parasuis
[7] = Effect of β-hinokitiol derivatives on diarrhea of weaned pigs; format: in vivo
Description: 80 25-day-old weaned pigs were randomly divided into eight groups according to table 7, 10 pigs in each group. […] During the testing, the pigs ate food and drank water freely with temperature preservation. The test lasted for 10 days.

[8] = test system: salmonellas; assay: Minimum inhibitory concentration in vitro, doubling dilutions; format: cell-based
[9] = test system: major animal pathogenic bacteria; assay: In vitro antibacterial activity (MICs), overall statement; format: cell-based; details: Tables 1 to 4
[10] = test system: riemerella anatipestifer; assay: Minimum inhibitory concentration in vitro, doubling dilutions; format: cell-based
[11] = test system: streptococcus; assay: as above; format: cell-based
[12] = test system: riemerella anatipestifer; assay: Protection effect against attacking and infection of riemerella anatipestifer; details: ducks, 5 × 10^7 CFU/bird, 7 days
[13] = read-out: Minimum inhibitory concentration (MIC), Clostridium JM1210B
[14] = read-out: Minimum inhibitory concentration (MIC), Clostridium JM1212A
[15] = read-out: Minimum inhibitory concentration (MIC), Eserichia coli HZ1308-1
[16] = read-out: Minimum inhibitory concentration (MIC), Eserichia coli SS1107A
[17] = read-out: Minimum inhibitory concentration (MIC), Vibrio VP3
[18] = read-out: Minimum inhibitory concentration (MIC), Vibrio VP5
[19] = read-out: Minimum inhibitory concentration (MIC), Haemophilus parasuis S5A
[20] = strain 2-3A, read-out: Minimum inhibitory concentration (MIC), Haemophilus parasuis 2-3A
[21] = strain FS1303B, read-out: Minimum inhibitory concentration (MIC), Salmonellas FS1303B
[22] = strain GD1303-3, read-out: Minimum inhibitory concentration (MIC), Salmonellas GD1303-3
[23] = read-out: Minimum inhibitory concentration (MIC), Riemerella anatipestifer SCAU03
[24] = strain KP1307-1, read-out: Minimum inhibitory concentration (MIC), Streptococcus KP1307-1
[25] = strain TS1205-2, read-out: Minimum inhibitory concentration (MIC), Streptococcus TS1205-2
[26] = strain WS, read-out: Minimum inhibitory concentration (MIC), Riemerella anatipestifer WS

Structure (SMILES)	MIC [1, 13]	MIC [1, 14]	MIC [2, 15]	MIC [2, 16]	MIC [5, 17]	MIC [5, 18]	MIC [6, 19]	MIC [6, 20]	MIC [8, 21]	MIC [8, 22]	MIC [10, 23]	MIC [11, 24]	MIC [11, 25]	MIC [10, 26]	other results
CCCc1cccc(=O)c(O)c1 [IST_009_001, 2-hydroxy-4-propylcyclohepta-2,4,6-trienone]	3.13 µg/mL (≈ 19.1 µM)	3.13 µg/mL (≈ 19.1 µM)	12.5 µg/mL (≈ 76.1 µM)	12.5 µg/mL (≈ 76.1 µM)	12.5 µg/mL (≈ 76.1 µM)	6.25 µg/mL (≈ 38.1 µM)	0.2 µg/mL (≈ 1.22 µM)	0.39 µg/mL (≈ 2.38 µM)	6.25 µg/mL (≈ 38.1 µM)	12.5 µg/mL (≈ 76.1 µM)	12.5 µg/mL (≈ 76.1 µM)	25 µg/mL (≈ 152 µM)	25 µg/mL (≈ 152 µM)		Average daily weight gain ([3]; 5 ppm mixed with feed): 37.75 g/d * bird and 36.93 g/d * bird and 33.52 g/d * bird; Average weight gain ([3]; 5 ppm mixed with feed): 516.79 g and 520.00 g and 547.21 g; Total consumption ([3]; 5 ppm mixed with feed): 61 kg and 58.85 kg and 55.12 kg; feed conversion efficiency ([3]; 5 ppm mixed with feed): 2.886 and 2.846 and 2.808; Average daily weight gain ([3]; 15 ppm mixed with feed): 36.94 g/d * bird and 37.5 g/d * bird and 34.53 g/d * bird; Average weight gain ([3]; 15 ppm mixed with feed): 517.17 g and 525.50 g and 523.38 g; Total consumption ([3]; 15 ppm mixed with feed): 58.03 kg and 57.61 kg and 57.84 kg; feed conversion efficiency ([3]; 15 ppm mixed with feed): 2.807 and 2.741 and 2.889; weight gain and feed conversion efficiency of the experimental broilers (in words) ([3]; in feed): could enhance the weight gain and the feed conversion efficiency; MIC ([4]; read-out: Minimum inhibitory concentration (MIC), Staphylococcus aureus PNB14): 12.5 µg/mL (≈ 76.1 µM); MIC ([4]; read-out: Minimum inhibitory concentration (MIC), Staphylococcus aureus SA10): 12.5 µg/mL (≈ 76.1 µM); effect on diarrhea compared with colistin sulfate or IST_001_002 groups (in words) ([7]; 30 ppm test group): obviously better than that of colistin sulfate or IST_001_002 groups; Average daily diarrhea rate ([7]; weaned pigs, 30 ppm in diet, 10 days): 16% and 17%; diarrhea rate of the tested pigs (in words) ([7]; weaned pigs, added in feeds, 10 days): could obviously reduce the diarrhea rate; antibacterial activities compared with the lead compound IST_001_002 (in words) [9]: better than those of the lead compound IST_001_002; MIC ([10]; read-out: Minimum inhibitory concentration (MIC), Riemerella anatipestifer WS): 3.13 µg/mL (≈ 19.1 µM); Death rate ([12]; 10 mg/kg weight intramuscular): 0%; Morbidity ([12]; 10 mg/kg weight intramuscular): 40%; Death rate ([12]; 20 mg/kg weight intramuscular): 0%; Morbidity ([12]; 20 mg/kg weight intramuscular): 25%
CCCCc1cccc(=O)c(O)c1 [IST_009_019, 4-butyl-2-hydroxycyclohepta-2,4,6-trienone]	12.5 µg/mL (≈ 70.1 µM)	6.25 µg/mL (≈ 35.1 µM)	25 µg/mL (≈ 140 µM)	25 µg/mL (≈ 140 µM)	50 µg/mL (≈ 281 µM)	50 µg/mL (≈ 281 µM)	0.2 µg/mL (≈ 1.12 µM)	0.39 µg/mL (≈ 2.19 µM)	25 µg/mL (≈ 140 µM)	25 µg/mL (≈ 140 µM)		> 100 µg/mL	25 µg/mL (≈ 140 µM)		
O=c1cccc(Cc2ccc(Cl)cc2)cc1O [IST_009_025, 4-(4-chlorobenzyl)-2-hydroxycyclohepta-2,4,6-trienone]					> 100 µg/mL	> 100 µg/mL						25 µg/mL (≈ 101 µM)	25 µg/mL (≈ 101 µM)		
CCCCCCCCCCCCCCc1cccc(=O)c(O)c1 [IST_009_033, 2-hydroxy-4-tetradecylcyclohepta-2,4,6-trienone]	50 µg/mL (≈ 157 µM)	50 µg/mL (≈ 157 µM)	> 100 µg/mL	> 100 µg/mL	> 100 µg/mL	> 100 µg/mL		50 µg/mL (≈ 157 µM)	> 100 µg/mL	> 100 µg/mL		> 100 µg/mL	> 100 µg/mL	25 µg/mL (≈ 78.5 µM)	MIC ([10]; strain SCAU03, read-out: Minimum inhibitory concentration (MIC), Riemerella anatipestifer SCAU03): 100 µg/mL (≈ 314 µM)
CO/N=C(\C(=O)N[C@@H]1C(=O)N2C(C(=O)O)=C(COC(C)=O)CS[C@H]12)c1csc(N)n1 [Cefotaxime, reference compound]															Death rate ([12]; 10 mg/kg weight intramuscular): 0%; Morbidity ([12]; 10 mg/kg weight intramuscular): 25%
CCc1cccc(=O)c(O)c1 [IST_009_018, 4-ethyl-2-hydroxycyclohepta-2,4,6-trienone]	3.13 µg/mL (≈ 20.8 µM)	3.13 µg/mL (≈ 20.8 µM)	25 µg/mL (≈ 166 µM)	50 µg/mL (≈ 333 µM)	25 µg/mL (≈ 166 µM)	25 µg/mL (≈ 166 µM)	1.56 µg/mL (≈ 10.4 µM)		12.5 µg/mL (≈ 83.2 µM)	25 µg/mL (≈ 166 µM)	12.5 µg/mL (≈ 83.2 µM)		> 100 µg/mL	6.25 µg/mL (≈ 41.6 µM)	MIC ([6]; read-out: Minimum inhibitory concentration (MIC), Haemophilus parasuis 2-3A): 3.13 µg/mL (≈ 20.8 µM); MIC ([11]; read-out: Minimum inhibitory concentration (MIC), Streptococcus KP1307-1): 12.5 µg/mL (≈ 83.2 µM)
O=c1cccc(Cc2ccccc2)cc1O [IST_009_004, 4-benzyl-2-hydroxycyclohepta-2,4,6-trienone]	12.5 µg/mL (≈ 58.9 µM)	12.5 µg/mL (≈ 58.9 µM)	12.5 µg/mL (≈ 58.9 µM)	25 µg/mL (≈ 118 µM)	50 µg/mL (≈ 236 µM)	50 µg/mL (≈ 236 µM)	0.2 µg/mL (≈ 0.942 µM)	0.78 µg/mL (≈ 3.67 µM)	25 µg/mL (≈ 118 µM)	25 µg/mL (≈ 118 µM)	12.5 µg/mL (≈ 58.9 µM)	6.25 µg/mL (≈ 29.4 µM)	50 µg/mL (≈ 236 µM)	6.25 µg/mL (≈ 29.4 µM)	
